Reference: patent publication US10669283B2, “Compound and pharmacologically acceptable salt thereof” (MEIJI SEIKA PHARMA CO., LTD., priority 2016, dated 2020)

Tested on: PDE4
Assay: PDE4 inhibition, scintillation proximity assay (SPA);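 note: A below 100 nM B 100 to below 1000 nM C 1000 nM or more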
Assay type: biochemical
Conditions: scintillation proximity assay (SPA); evaluated as classes A, B, C; read-out: PDE4 Inhibitory Activity (concentration for the inhibition rate of 50%)
Summary of the method: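 Scintillation proximity read-out: [2,8-3H]-cAMP hydrolysis by PDE4 ran 120 min at room temperature in Tris-HCl pH 7.4 buffer with 8.3 mM MgCl2, 1.7 mM EGTA and 3 mg/mL BSA. Bead-bound product (YSi-SPA with ZnSO4, 15 min) counted; blank lacks enzyme, control has DMSO only.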

With `NC(=O)COC(c1ccc(-c2nccs2)c2oc(N3CC4CC(C3)N4)nc12)C(F)(F)F` (stereo not drawn) [Example 256, 2-(1-(2-(3,6-Diazabicyclo[3.1.1]heptan-3-yl)-7-(thiazol-2-yl)benzo[d]oxazol-4-yl)-2,2,2-trifluoroethoxy)acetamide] as the compound, how does the IC50 read?
Its IC50 is less than 100 nM.

How did the IC50 turn out when `CC(C)(O)C(F)(F)OC(c1ccc(-c2nccs2)c2oc(N3CC4CC(C3)N4)nc12)C(F)(F)F` (stereo not drawn) [Example 257, 1-(1-(2-(3,6-Diazabicyclo[3.1.1]heptan-3-yl)-7-(thiazol-2-yl)benzo[d]oxazol-4-yl)-2,2,2-trifluoroethoxy)-1,1-difluoro-2-methylpropan-2-ol] was run?
Its IC50 is less than 100 nM.

How did the IC50 turn out when `OCC(F)(F)OC(c1ccc(-c2nccs2)c2oc(N3CC4CC(C3)N4)nc12)C(F)(F)F` (stereo not drawn) [Example 258, 2-(1-(2-(3,6-Diazabicyclo[3.1.1]heptan-3-yl)-7-(thiazol-2-yl)benzo[d]oxazol-4-yl)-2,2,2-trifluoroethoxy)-2,2-difluoroethan-1-ol] was run?
Its IC50 is less than 100 nM.

How did the IC50 turn out when `C[C@H](O)COc1ccc(-c2nccs2)c2oc(N3CC4CC(C3)N4)nc12` [Example 260, (2S)-1-((2-(3,6-diazabicyclo[3.1.1]heptan-3-yl)-7-(thiazol-2-yl)benzo[d]oxazol-4-yl)oxy)propan-2-ol] was run?
The IC50 was less than 100 nM.

With `CC(O)COC(c1ccc(-c2nccs2)c2oc(N3CC4CC(C3)N4)nc12)C(F)(F)F` (stereo not drawn) [Example 261, 1-(1-(2-(3,6-Diazabicyclo[3.1.1]heptan-3-yl)-7-(thiazol-2-yl)benzo[d]oxazol-4-yl)-2,2,2-trifluoroethoxy)propan-2-ol] as the compound, how does the IC50 read?
The IC50 was less than 100 nM.

Which IC50 does the source give for `c1csc(-c2ccc(OC3CCCOC3)c3nc(N4CC5CCC(C4)N5)oc23)n1` (stereo not drawn) [Example 262, 2-(3,8-Diazabicyclo[3.2.1]octan-3-yl)-4-((tetrahydro-2H-pyran-3-yl)oxy)-7-(thiazol-2-yl)benzo[d]oxazole] here?
Its IC50 is less than 100 nM.

How did the IC50 turn out when `FC(F)Oc1ccc(-c2nccs2)c2oc(N3CC4CCC(C3)N4)nc12` [Example 263, 2-(3,8-Diazabicyclo[3.2.1]octan-3-yl)-4-(difluoromethoxy)-7-(thiazol-2-yl)benzo[d]oxazole] was run?
Its IC50 is less than 100 nM.

For `CC(C)(O)COc1ccc(-c2nccs2)c2oc(N3CC4CCC(C3)N4)nc12` [Example 264, 1-((2-(3,8-Diazabicyclo[3.2.1]octan-3-yl)-7-(thiazol-2-yl)benzo[d]oxazol-4-yl)oxy)-2-methylpropan-2-ol], which IC50 is on record?
Its IC50 is less than 100 nM.

For `CC(O)C(F)(F)OC(c1ccc(-c2nccs2)c2oc(N3CC4CC(C3)N4)nc12)C(F)(F)F` (stereo not drawn) [Example 265, 1-(1-(2-(3,6-Diazabicyclo[3.1.1]heptan-3-yl)-7-(thiazol-2-yl)benzo[d]oxazol-4-yl)-2,2,2-trifluoroethoxy)-1,1-difluoropropan-2-ol], which IC50 is on record?
Its IC50 is less than 100 nM.

`N#CC1CC(Oc2ccc(-c3nccs3)c3oc(N4CC5CC(C4)N5)nc23)C1` (stereo not drawn) [Example 266, 3-((2-(3,6-Diazabicyclo[3.1.1]heptan-3-yl)-7-(thiazol-2-yl)benzo[d]oxazol-4-yl)oxy)cyclobutane-1-carbonitrile] was tested. Which IC50 did it give?
Its IC50 is less than 100 nM.

For `CC(C)(O)C1CC(Oc2ccc(-c3nccs3)c3oc(N4CC5CC(C4)N5)nc23)C1` (stereo not drawn) [Example 267, 2-(3-((2-(3,6-Diazabicyclo[3.1.1]heptan-3-yl)-7-(thiazol-2-yl)benzo[d]oxazol-4-yl)oxy)cyclobutyl)propan-2-ol], which IC50 is on record?
The IC50 was less than 100 nM.

With `CC(C)(CO)Oc1ccc(-c2nccs2)c2oc(N3CC4CC(C3)N4)nc12` [Example 268, 2-((2-(3,6-Diazabicyclo[3.1.1]heptan-3-yl)-7-(thiazol-2-yl)benzo[d]oxazol-4-yl)oxy)-2-methylpropan-1-ol] as the compound, how does the IC50 read?
Its IC50 is less than 100 nM.

How did the IC50 turn out when `OC1(c2cc(-c3nccs3)c3oc(N4CC5CC(C4)N5)nc3c2OC(F)(F)F)CC1` [Example 269, 1-(2-(3,6-Diazabicyclo[3.1.1]heptan-3-yl)-7-(thiazol-2-yl)-4-(trifluoromethoxy)benzo[d]oxazol-5-yl)cyclopropan-1-ol] was run?
Its IC50 is less than 100 nM.

How did the IC50 turn out when `CC(O)(c1ccc(-c2nccs2)c2oc(N3CC4CC(C3)N4)nc12)C(F)(F)F` (stereo not drawn) [Example 270, 2-(2-(3,6-Diazabicyclo[3.1.1]heptan-3-yl)-7-(thiazol-2-yl)benzo[d]oxazol-4-yl)-1,1,1-trifluoropropan-2-ol] was run?
The IC50 was less than 100 nM.

`CC(O)(c1ccc(-c2nccs2)c2oc(N3CC4CC(C3)N4)nc12)C(F)(F)F` (stereo not drawn) [Example 271, 2-(2-(3,6-Diazabicyclo[3.1.1]heptan-3-yl)-7-(thiazol-2-yl)benzo[d]oxazol-4-yl)-1,1,1-trifluoropropan-2-ol] was tested. Which IC50 did it give?
Its IC50 is less than 100 nM.

How did the IC50 turn out when `CC(O)c1cc(-c2nccs2)c2oc(N3CC4CC(C3)N4)nc2c1OC(F)(F)F` (stereo not drawn) [Example 272, 1-(2-(3,6-Diazabicyclo[3.1.1]heptan-3-yl)-7-(thiazol-2-yl)-4-(trifluoromethoxy)benzo[d]oxazol-5-yl)ethan-1-ol] was run?
Its IC50 is less than 100 nM.

How did the IC50 turn out when `CC(O)c1cc(-c2nccs2)c2oc(N3CC4CC(C3)N4)nc2c1OC(F)(F)F` (stereo not drawn) [Example 273, 1-(2-(3,6-Diazabicyclo[3.1.1]heptan-3-yl)-7-(thiazol-2-yl)-4-(trifluoromethoxy)benzo[d]oxazol-5-yl)ethan-1-ol] was run?
The IC50 was less than 100 nM.

`OC1(c2cc(-c3nccs3)c3oc(N4CC5CCC(C4)N5)nc3c2OC(F)(F)F)CC1` [Example 274, 1-(2-(3,8-Diazabicyclo[3.2.1]octan-3-yl)-7-(thiazol-2-yl)-4-(trifluoromethoxy)benzo[d]oxazol-5-yl)cyclopropan-1-ol] was tested. Which IC50 did it give?
Its IC50 is less than 100 nM.

How did the IC50 turn out when `OC(c1cc(-c2nccs2)c2oc(N3CC4CCC(C3)N4)nc2c1OC(F)(F)F)C(F)F` (stereo not drawn) [Example 275, 1-(2-(3,8-Diazabicyclo[3.2.1]octan-3-yl)-7-(thiazol-2-yl)-4-(trifluoromethoxy)benzo[d]oxazol-5-yl)-2,2-difluoroethan-1-ol] was run?
The IC50 was less than 100 nM.

With `OC(c1cc(-c2nccs2)c2oc(N3CC4CCC(C3)N4)nc2c1OC(F)(F)F)C(F)F` (stereo not drawn) [Example 276, 1-(2-(3,8-Diazabicyclo[3.2.1]octan-3-yl)-7-(thiazol-2-yl)-4-(trifluoromethoxy)benzo[d]oxazol-5-yl)-2,2-difluoroethan-1-ol] as the compound, how does the IC50 read?
Its IC50 is less than 100 nM.

For `OC(COc1ccc(-c2nccs2)c2oc(N3CC4CC(C3)N4)nc12)C(F)(F)F` (stereo not drawn) [Example 277, 3-((2-(3,6-Diazabicyclo[3.1.1]heptan-3-yl)-7-(thiazol-2-yl)benzo[d]oxazol-4-yl)oxy)-1,1,1-trifluoropropan-2-ol], which IC50 is on record?
The IC50 was less than 100 nM.

For `FC(F)Oc1ccc(-c2nccs2)c2oc(N3CC4CC(C3)N4)nc12` [Example 278, 2-(3,6-Diazabicyclo[3.1.1]heptan-3-yl)-4-(difluoromethoxy)-7-(thiazol-2-yl)benzo[d]oxazole], which IC50 is on record?
The IC50 was less than 100 nM.

With `CC(C)(O)COc1ccc(-c2nccs2)c2oc(N3CC4CC(C3)N4)nc12` [Example 279, 1-((2-(3,6-Diazabicyclo[3.1.1]heptan-3-yl)-7-(thiazol-2-yl)benzo[d]oxazol-4-yl)oxy)-2-methylpropan-2-ol] as the compound, how does the IC50 read?
The IC50 was less than 100 nM.

Which IC50 does the source give for `CC(C)(O)C(C)(C)OC(c1ccc(-c2nccs2)c2oc(N3CC4CC(C3)N4)nc12)C(F)(F)F` (stereo not drawn) [Example 280, 3-(1-(2-(3,6-Diazabicyclo[3.1.1]heptan-3-yl)-7-(thiazol-2-yl)benzo[d]oxazol-4-yl)-2,2,2-trifluoroethoxy)-2,3-dimethylbutan-2-ol] here?
Its IC50 is less than 100 nM.

How did the IC50 turn out when `COC(C)(C)COC(c1ccc(-c2nccs2)c2oc(N3CC4CC(C3)N4)nc12)C(F)(F)F` (stereo not drawn) [Example 281, 2-(3,6-Diazabicyclo[3.1.1]heptan-3-yl)-7-(thiazol-2-yl)-4-(2,2,2-trifluoro-1-(2-methoxy-2-methylpropoxy)ethyl)benzo[d]oxazole] was run?
The IC50 was less than 100 nM.

For `COC1(COC(c2ccc(-c3nccs3)c3oc(N4CC5CC(C4)N5)nc23)C(F)(F)F)CC1` (stereo not drawn) [Example 282, 2-(3,6-Diazabicyclo[3.1.1]heptan-3-yl)-7-(thiazol-2-yl)-4-(2,2,2-trifluoro-1-((1-methoxycyclopropyl)methoxy)ethyl)benzo[d]oxazole], which IC50 is on record?
The IC50 was less than 100 nM.

How did the IC50 turn out when `COC1(c2cc(-c3nccs3)c3oc(N4CC5CC(C4)N5)nc3c2OC(F)(F)F)CC1` [Example 283, 2-(3,6-Diazabicyclo[3.1.1]heptan-3-yl)-5-(1-methoxycyclopropyl)-7-(thiazol-2-yl)-4-(trifluoromethoxy)benzo[d]oxazole] was run?
The IC50 was less than 100 nM.

For `CC(C)(O)COC(c1ccc(-c2cscn2)c2oc(N3CC4CC(C3)N4)nc12)C(F)(F)F` (stereo not drawn) [Example 284, 1-(1-(2-(3,6-Diazabicyclo[3.1.1]heptan-3-yl)-7-(thiazol-4-yl)benzo[d]oxazol-4-yl)-2,2,2-trifluoroethoxy)-2-methylpropan-2-ol], which IC50 is on record?
The IC50 was less than 100 nM.

Which IC50 does the source give for `OC1(COC(c2ccc(-c3cscn3)c3oc(N4CC5CC(C4)N5)nc23)C(F)(F)F)CC1` (stereo not drawn) [Example 286, 1-((1-(2-(3,6-Diazabicyclo[3.1.1]heptan-3-yl)-7-(thiazol-4-yl)benzo[d]oxazol-4-yl)-2,2,2-trifluoroethoxy)methyl)cyclopropan-1-ol] here?
The IC50 was less than 100 nM.

How did the IC50 turn out when `COC(C)(C)c1cc(-c2cscn2)c2oc(N3CC4CC(C3)N4)nc2c1OC(F)(F)F` [Example 287, 2-(3,6-Diazabicyclo[3.1.1]heptan-3-yl)-5-(2-methoxypropan-2-yl)-7-(thiazol-4-yl)-4-(trifluoromethoxy)benzo[d]oxazole] was run?
The IC50 was less than 100 nM.

`CC(C)(O)c1cc(-c2cscn2)c2oc(N3CC4CC(C3)N4)nc2c1OC(F)(F)F` [Example 288, 2-(2-(3,6-Diazabicyclo[3.1.1]heptan-3-yl)-7-(thiazol-4-yl)-4-(trifluoromethoxy)benzo[d]oxazol-5-yl)propan-2-ol] was tested. Which IC50 did it give?
Its IC50 is less than 100 nM.

`CC(C)(O)C(F)(F)Oc1ccc(-c2ccccn2)c2oc(N3CC4CC(C3)N4)nc12` [Example 289, 1-((2-(3,6-Diazabicyclo[3.1.1]heptan-3-yl)-7-(pyridin-2-yl)benzo[d]oxazol-4-yl)oxy)-1,1-difluoro-2-methylpropan-2-ol] was tested. Which IC50 did it give?
Its IC50 is less than 100 nM.

`CC(C)(O)C(F)(F)Oc1ccc(-c2ncco2)c2oc(N3CC4CC(C3)N4)nc12` [Example 290, 1-((2-(3,6-Diazabicyclo[3.1.1]heptan-3-yl)-7-(oxazol-2-yl)benzo[d]oxazol-4-yl)oxy)-1,1-difluoro-2-methylpropan-2-ol] was tested. Which IC50 did it give?
The IC50 was less than 100 nM.
